Source: ChEMBL document CHEMBL1201862, “PubChem BioAssay data set” (2004)
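Five compound concentrations were applied to cells in 96-well plates for 48 hours; endpoints were derived by simple linear interpolation of the resulting dose-response curve. Abbreviation: GI50, concentration required for 50% inhibition of growth.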 Calls of active or inactive are those of the source. No stated cut-off is given here; in the data, active = GI50 up to about 1.1 µM and inactive = higher.

How the values were obtained:
Assay in all cases: DTP human tumour cell line panel, 48 h
[1] = system: HOP-62
[2] = system: SK-OV-3
[3] = system: MDA-MB-231
[4] = system: MDA-N
[5] = system: SW-620
[6] = system: SNB-19
[7] = system: SR
[8] = system: Hs-578T
[9] = system: UO-31
[10] = system: NCI-H460
[11] = system: T47D
[12] = system: MDA-MB-435
[13] = system: 786-0
[14] = system: NCI/ADR-RES
[15] = system: LOX IMVI
[16] = system: NCI-H226
[17] = system: OVCAR-3
[18] = system: COLO 205
[19] = system: SK-MEL-2
[20] = system: TK-10

Row | SMILES | GI50 [1] | GI50 [2] | GI50 [3] | GI50 [4] | GI50 [5] | GI50 [6] | GI50 [7] | GI50 [8] | GI50 [9] | GI50 [10] | GI50 [11] | GI50 [12] | GI50 [13] | GI50 [14] | GI50 [15] | GI50 [16] | GI50 [17] | GI50 [18] | GI50 [19] | GI50 [20]
1 | Clc1ccc(-c2nnc(C34CC5CC(CC(C5)C3)C4)o2)cc1 | > 100 µM (inactive) | > 100 µM (inactive) | > 100 µM (inactive) | > 100 µM (inactive) | > 100 µM (inactive) | > 100 µM (inactive) | > 100 µM (inactive) | > 100 µM (inactive) | 3.78 µM (inactive) | > 100 µM (inactive) | > 100 µM (inactive) | > 100 µM (inactive) | > 100 µM (inactive) | > 100 µM (inactive) | > 100 µM (inactive) | > 100 µM (inactive) | > 100 µM (inactive) | > 100 µM (inactive) | > 100 µM (inactive) | –
2 | C[N+](C)(C)CCN(Cc1cccs1)c1ccccn1 | > 100 µM (inactive) | > 100 µM (inactive) | > 100 µM (inactive) | > 100 µM (inactive) | > 100 µM (inactive) | > 100 µM (inactive) | > 100 µM (inactive) | 74.5 µM (inactive) | > 100 µM (inactive) | > 100 µM (inactive) | > 100 µM (inactive) | > 100 µM (inactive) | > 100 µM (inactive) | > 100 µM (inactive) | > 100 µM (inactive) | > 100 µM (inactive) | 35.7 µM (inactive) | 35.2 µM (inactive) | > 100 µM (inactive) | > 100 µM (inactive)
3 | COc1ccc(NC(=O)CSc2nnc(-c3ccc(/N=C\c4ccc(Cl)cc4)cc3)o2)cc1 | 24.8 µM (inactive) | 51.8 µM (inactive) | 34.5 µM (inactive) | 39.6 µM (inactive) | 22.1 µM (inactive) | 29.9 µM (inactive) | 13.3 µM (inactive) | 77.6 µM (inactive) | > 54.7 µM (inactive) | > 67.3 µM (inactive) | 21.2 µM (inactive) | 34 µM (inactive) | 37.8 µM (inactive) | 42.3 µM (inactive) | 7.98 µM (inactive) | > 44.6 µM (inactive) | 21.4 µM (inactive) | 20 µM (inactive) | 15 µM (inactive) | > 100 µM (inactive)
4 | CCOC(=O)C(=O)C(=O)NN(C)C1=NCCN1 | > 100 µM (inactive) | > 100 µM (inactive) | > 100 µM (inactive) | > 100 µM (inactive) | > 100 µM (inactive) | > 100 µM (inactive) | > 100 µM (inactive) | > 100 µM (inactive) | > 100 µM (inactive) | > 100 µM (inactive) | > 100 µM (inactive) | > 100 µM (inactive) | > 100 µM (inactive) | > 100 µM (inactive) | > 100 µM (inactive) | > 100 µM (inactive) | > 100 µM (inactive) | > 100 µM (inactive) | > 100 µM (inactive) | > 100 µM (inactive)
5 | c1ccc(/C(=N/Nc2nc3ccccc3s2)C2CCCCC2)nc1 | 9.46 µM (inactive) | 4.67 µM (inactive) | 11.3 µM (inactive) | 14.4 µM (inactive) | 5.21 µM (inactive) | 13.2 µM (inactive) | 3.88 µM (inactive) | 19.6 µM (inactive) | 3.04 µM (inactive) | 7.83 µM (inactive) | 0.299 µM (active) | 14.8 µM (inactive) | 7.29 µM (inactive) | 2.58 µM (inactive) | 13.6 µM (inactive) | 10 µM (inactive) | 2.92 µM (inactive) | 1.57 µM (inactive) | 15.7 µM (inactive) | 2.47 µM (inactive)
6 | O=[N+]([O-])/C(C(Cl)=C(Cl)Cl)=C(\N1CCCCC1)n1nnc2ccccc21 | 22.2 µM (inactive) | 24.9 µM (inactive) | 17.3 µM (inactive) | 20.8 µM (inactive) | 19.1 µM (inactive) | 20.9 µM (inactive) | 16.4 µM (inactive) | 32.9 µM (inactive) | 18.2 µM (inactive) | 22.4 µM (inactive) | 33.3 µM (inactive) | 31.6 µM (inactive) | 18.5 µM (inactive) | 29.6 µM (inactive) | 16.7 µM (inactive) | 20 µM (inactive) | 17.9 µM (inactive) | 17.8 µM (inactive) | 17.1 µM (inactive) | 18.2 µM (inactive)
7 | C=C1C(=O)O[C@H]2C[C@@H]1C(=O)CC(C)CCCC(C)=CCC[C@@]2(C)O (some centres not stated) | > 25 µM (inactive) | > 25 µM (inactive) | > 25 µM (inactive) | > 25 µM (inactive) | > 25 µM (inactive) | > 25 µM (inactive) | 16.8 µM (inactive) | > 25 µM (inactive) | > 25 µM (inactive) | > 25 µM (inactive) | > 25 µM (inactive) | > 25 µM (inactive) | > 25 µM (inactive) | > 25 µM (inactive) | > 25 µM (inactive) | > 25 µM (inactive) | > 25 µM (inactive) | > 25 µM (inactive) | > 25 µM (inactive) | > 25 µM (inactive)
8 | COc1cccc2c1C(=O)c1c(O)c3c(c(O)c1C2=O)C[C@@](O)(C(C)=O)C[C@@H]3OC1CC(N(C)C)C(O)C(C)O1 (some centres not stated) | 0.00344 µM (active) | 0.00593 µM (active) | 0.00132 µM (active) | 0.000226 µM (active) | 0.00348 µM (active) | 0.00411 µM (active) | 0.00135 µM (active) | 0.000123 µM (active) | 0.00371 µM (active) | 0.00383 µM (active) | 0.000196 µM (active) | 0.000489 µM (active) | 0.0562 µM (active) | 0.0575 µM (active) | 0.00223 µM (active) | 0.029 µM (active) | 0.00649 µM (active) | 0.00428 µM (active) | 0.0798 µM (active) | 0.00514 µM (active)
9 | Cc1cc(O)c2cc3c(O)c(O)ccc3cc2c1 | 1.29 µM (inactive) | 0.774 µM (active) | 1.25 µM (inactive) | 2.18 µM (inactive) | 0.53 µM (active) | 0.615 µM (active) | 0.618 µM (active) | 0.465 µM (active) | 0.7 µM (active) | 0.524 µM (active) | 1.75 µM (inactive) | 3.63 µM (inactive) | 3.95 µM (inactive) | 0.438 µM (active) | 1.35 µM (inactive) | 1.23 µM (inactive) | 0.46 µM (active) | 0.351 µM (active) | 0.895 µM (active) | 3.78 µM (inactive)
10 | CN(/N=C/c1ccc(Cl)c(Cl)c1)C1=NCCCCN1 | 16.7 µM (inactive) | 53.3 µM (inactive) | 32 µM (inactive) | 19.9 µM (inactive) | 15.6 µM (inactive) | 45.4 µM (inactive) | 41.3 µM (inactive) | 61 µM (inactive) | – | 42.5 µM (inactive) | 16.6 µM (inactive) | 16.3 µM (inactive) | 20.6 µM (inactive) | 66.8 µM (inactive) | 13.2 µM (inactive) | 2.45 µM (inactive) | 41.6 µM (inactive) | 16.7 µM (inactive) | 20.1 µM (inactive) | 69.8 µM (inactive)
11 | CC(C)(C)N1CC1CNC(=O)C(=O)NCC1CN1C(C)(C)C (configuration not stated) | 1.31 µM (inactive) | 3.69 µM (inactive) | 63.4 µM (inactive) | 25.8 µM (inactive) | 3.08 µM (inactive) | 13.7 µM (inactive) | 0.601 µM (active) | 91 µM (inactive) | 6.61 µM (inactive) | 1.53 µM (inactive) | 22.2 µM (inactive) | 38.8 µM (inactive) | 1.4 µM (inactive) | 2.55 µM (inactive) | 8.24 µM (inactive) | 7.83 µM (inactive) | 4.62 µM (inactive) | 3.79 µM (inactive) | 5.33 µM (inactive) | 51.1 µM (inactive)
12 | CNC(=S)N(C1CCCCC1)C1CCCCC1 | > 100 µM (inactive) | > 100 µM (inactive) | > 100 µM (inactive) | > 100 µM (inactive) | > 100 µM (inactive) | > 100 µM (inactive) | 42.4 µM (inactive) | 26.3 µM (inactive) | 85.5 µM (inactive) | 50.9 µM (inactive) | 44 µM (inactive) | > 100 µM (inactive) | > 100 µM (inactive) | > 100 µM (inactive) | > 100 µM (inactive) | > 100 µM (inactive) | > 100 µM (inactive) | 66.1 µM (inactive) | 76.9 µM (inactive) | > 100 µM (inactive)
13 | c1cc2nnc1SCCSCCCSCCS2 | 35.2 µM (inactive) | > 100 µM (inactive) | 29.6 µM (inactive) | > 100 µM (inactive) | > 100 µM (inactive) | 56.8 µM (inactive) | > 100 µM (inactive) | > 100 µM (inactive) | > 100 µM (inactive) | > 100 µM (inactive) | > 100 µM (inactive) | > 100 µM (inactive) | 67 µM (inactive) | > 100 µM (inactive) | > 100 µM (inactive) | > 100 µM (inactive) | > 100 µM (inactive) | > 100 µM (inactive) | > 100 µM (inactive) | > 100 µM (inactive)
14 | C/C=C/C=C/c1nc(C#N)c(N)o1 | > 100 µM (inactive) | > 100 µM (inactive) | > 100 µM (inactive) | > 100 µM (inactive) | > 100 µM (inactive) | > 100 µM (inactive) | > 100 µM (inactive) | > 100 µM (inactive) | 18.3 µM (inactive) | – | > 100 µM (inactive) | > 100 µM (inactive) | > 100 µM (inactive) | > 100 µM (inactive) | > 100 µM (inactive) | > 100 µM (inactive) | > 100 µM (inactive) | > 100 µM (inactive) | > 100 µM (inactive) | > 100 µM (inactive)
